The target in one test is T1, human CD38 (Homo sapiens, UniProt P28907).
T1 construct: the catalytic domains of the enzymes were amplified and sub-cloned into the expression vector pACGP67 A/B; 9xHis (C); made in house; host or cells: Sf9 insect cells (baculovirus, pACGP67 A/B)
T1 sequence (P28907 43-300 limits assumed): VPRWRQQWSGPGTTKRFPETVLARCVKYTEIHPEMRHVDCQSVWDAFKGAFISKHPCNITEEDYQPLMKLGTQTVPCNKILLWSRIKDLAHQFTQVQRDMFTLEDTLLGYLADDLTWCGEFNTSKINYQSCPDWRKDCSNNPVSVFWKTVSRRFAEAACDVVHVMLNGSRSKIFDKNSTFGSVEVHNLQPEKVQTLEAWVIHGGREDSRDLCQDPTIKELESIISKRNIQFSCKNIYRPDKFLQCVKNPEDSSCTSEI
In words: CD38 assay. The note with it: analogous to NPP3 and NPP5 assays; for Ki: read-out: Ki ± SEM. Format: biochemical. From the text:
The cDNAs of the human enzymes NPP1, NPP3, NPP5, CD38 and CD73 (Genbank accession no. NM_006258, NM_005021, NM_021572, NM_ 001775, and NM_002526, respectively) were obtained from Origene (Rockville, USA). Soluble enzymes were produced as previously reported with some modifications ([Lee et al., 2015]; [Junker et al., 2019]). Briefly, the catalytic domains of the enzymes were amplified and sub-cloned into the expression vector pACGP67 A/B modified with the addition of 9 x histidine tag (His-tag) at the C-terminus (except for NPP1). The plasmids were transfected in Sf9 insect cells using Cellfectin™ II Reagent (Thermo Fisher Scientific, MA, USA) and ProEasy™ baculovirus linearized DNA (Cat.#A10S, AB Vector, LLC). Protein expression was conducted for 48 h at 27°C. The signal peptide sequence of the expression vector shuttled the proteins into the supernatant. The supernatant medium was collected, and the enzymes were purified using HisPur™ Ni^2+-NTA spin columns according to the manufacturer’s protocol. The protein concentration was determined by the method previously described by [Lowry et al. (1951)].
The assay operation was analogous to the NPP3 and NPP5 assays. The enzymatic reactions were performed in 10 mM HEPES reaction buffer (pH 7.2) using 8 ng of human CD38 (expressed in Sf9 insect cells) in analogy to a published procedure ([Blacher et al., 2015]).

The test system of the next test is P2 receptors. The arrangement: method as in Robson et al., 2006. The note with it: ref Robson et al., 2006; cited from earlier work.
For another test, the target named is T2, human CD39 (Homo sapiens, UniProt P49961).
T2 sequence (P49961 1-510): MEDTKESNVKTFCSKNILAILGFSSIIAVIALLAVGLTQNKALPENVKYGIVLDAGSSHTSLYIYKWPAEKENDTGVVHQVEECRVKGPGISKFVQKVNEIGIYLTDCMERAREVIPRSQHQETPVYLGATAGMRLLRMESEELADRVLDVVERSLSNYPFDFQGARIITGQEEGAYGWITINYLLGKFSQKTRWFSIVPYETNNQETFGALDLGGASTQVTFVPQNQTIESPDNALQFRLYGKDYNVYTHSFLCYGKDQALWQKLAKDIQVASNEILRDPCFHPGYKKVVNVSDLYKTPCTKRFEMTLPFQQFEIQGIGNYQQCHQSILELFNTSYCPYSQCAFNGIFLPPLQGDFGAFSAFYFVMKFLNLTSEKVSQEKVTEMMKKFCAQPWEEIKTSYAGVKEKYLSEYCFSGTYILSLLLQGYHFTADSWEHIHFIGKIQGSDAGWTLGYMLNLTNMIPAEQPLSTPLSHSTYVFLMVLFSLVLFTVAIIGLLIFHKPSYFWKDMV
The experiment in a line: Fluorescence capillary electrophoresis assay for CD39. Format: biochemical. Further details: Human umbilical cord membrane preparations (250 ng) natively expressing high amounts of CD39; from tissue; host or cells: human umbilical cord membranes. Conditions: fluorescent substrate PSB-017621A 0.5 µM; human umbilical cord membrane preparation; n = 3; Cheng-Prusoff; read-out: Ki ± SEM. The procedure:
They were minced and homogenized with a polytron in 95 mM NaCl, 0.1 mM phenylmethylsulfonyl fluoride (PMSF), and 45 mM Tris solution, pH 7.6. […] The pellets were resuspended in 5 mM Tris buffer solution, pH 8.0 and 10% glycerol. All purification steps were performed at 4°C. The preparations were kept at −80°C.
For inhibition screening, three independent experiments were performed. […] The reaction buffer contained 10 mM HEPES, 2 mM CaCl2, 1 mM MgCl2, pH 7.4. The samples were incubated at 37°C for 4 min, and the enzymatic reaction was terminated by heating at 90°C for 5 min. The solution was then diluted 1:20 with reaction buffer to perform separation of nucleotides by capillary electrophoresis (CE) followed by laser-induced fluorescence (LIF) detection. […] Three independent experiments were performed, and curves were calculated by GraphPad Prism 8 software (GraphPad software, San Diego, CA, USA).
Analysis was carried out using a P/ACE MDQ capillary electrophoresis system (Beckman Instruments, Fullerton, CA, USA). The separation was performed in a polyacrylamide-coated capillary [30 cm (10 cm effective length) × 50 µm (id), × 360 µm (od)]. Before each run, the capillary was rinsed with the background electrolyte [50 mM phosphate buffer (pH 6.5)] for 1 min at 30 psi. Samples were electrokinetically injected by applying a voltage of -6 kV for 30 s at the capillary outlet, and the fluorescent nucleotide derivatives were separated by voltage application of -15 kV. […] Data collection and peak area analysis were performed by the P/ACE MDQ software 32 KARAT obtained from Beckman Coulter (Fullerton, CA, USA).

The % inhibition is the drop in the measured response relative to a control, in per cent. For orientation: Ki means the equilibrium dissociation constant of an inhibitor or competing ligand from its target. With `CCCCSc1nc2c(N)ncnc2n1[C@@H]1O[C@H](COP(=O)(O)OP(=O)(O)C(Br)(Br)P(=O)(O)O)[C@@H](O)[C@H]1O` [Compound 31, (((((((2R,3S,4R,5R)-5-(6-Amino-8-(butylthio)-9H-purin-9-yl)-3,4-dihydroxytetrahydrofuran-2-yl)methoxy)(hydroxy)-phosphoryl)oxy)(hydroxy)phosphoryl)dibromomethyl)-phosphonic Acid], at human CD38, the “% inhibition” value was found to be 7% and the Ki was greater than 10 µM.

On to `CCN(CC)c1ncnc2c1ncn2[C@@H]1O[C@H](COP(=O)(O)OP(=O)(O)C(Br)(Br)P(=O)(O)O)[C@@H](O)[C@H]1O` [ARL67156, (Dibromo((((((2R,3S,4R,5R)-5-(6-(diethylamino)-9H-purin-9-yl)-3,4-dihydroxytetrahydrofuran-2-yl)methoxy)-(hydroxy)-phosphoryl)oxy)(hydroxy)phosphoryl)methyl)-phosphonic Acid, reference compound], for which, on human CD38, the “% inhibition” value came to 0% and the Ki is greater than 10 µM. The “effect on P2 receptors” value with P2 receptors is recorded as “no significant effect”.

As to `CCCCNc1nc2c(NC)ncnc2n1[C@@H]1O[C@H](COP(=O)(O)OP(=O)(O)C(Br)(Br)P(=O)(O)O)[C@@H](O)[C@H]1O` [Compound 33, (Dibromo((((((2R,3S,4R,5R)-5-(8-(butylamino)-6-(methylamino)-9H-purin-9-yl)-3,4-dihydroxy-tetrahydrofuran-2-yl)methoxy)(hydroxy)phosphoryl)oxy)-(hydroxy)phosphoryl)methyl)-phosphonic Acid], at human CD38, the “% inhibition” value is given as 6% and the Ki is greater than 10 µM. In addition, the Ki at human CD39 worked out at 1.51 ± 0.4 µM.

The values are drawn from publication PMC7508162 (Frontiers in Pharmacology, 2020).
